Reference: ChEMBL document CHEMBL2151028, “Analysis of the mushroom nephrotoxin orellanine and its glucosides” (J Nat Prod, 2012)

Legend:
Format in all cases: organism-based
Conditions in all cases: in vivo
[1] = Acute toxicity in po dosed mouse
Homo sapiens = species on record: Homo sapiens; test: Acute toxicity in human
[2] = Acute toxicity in ip dosed rat

[O-][n+]1ccc(O)c(O)c1-c1c(O)c(O)cc[n+]1[O-] [ORELLANINE]
LD50 [1]: 12 mg/kg
LD50 (Homo sapiens): 29 g
LD50 [2]: 5 mg/kg
